Experimental data taken from PubChem BioAssay AID248 (DTP/NCI, 2004).
“And” between values parts separate entries of the source, which are not always exact repeats. Equal entries are not always repeated. Toxic doses and inconclusive results are not listed. Cut-off read from the data, not from the text of the source: active = T/C of 150% or more; inactive = T/C below 125%.

System: L1210 leukemia ip in BDF1 mice, survival T/C
Assay: NCI In Vivo Anticancer Drug Screen. Data for tumor model L1210 Leukemia (intraperitoneal) in B6D2F1 (BDF1) mice
Settings: endpoint: mean survival time, higher = longer survival
In short: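 Antitumor effect is assessed in tumor-bearing animals. Survival in the compound arm is compared with a vehicle-dosed control arm and expressed as their quotient.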

[1] = dose: 100.0 mg/kg/injection, schedule: Q01DX001 (ip), vehicle: saline
[2] = dose: 200.0 mg/kg/injection, schedule: Q01DX001 (ip), vehicle: saline
[3] = dose: 100.0 mg/kg/injection, schedule: Q04DX003 (ip), vehicle: Klucel (hydroxypropylcellulose) (HPC)
[4] = dose: 50.0 mg/kg/injection, schedule: Q01DX009 (ip), vehicle: saline with Tween-80
[5] = dose: 100.0 mg/kg/injection, schedule: Q01DX009 (ip), vehicle: saline with Tween-80
[6] = dose: 100.0 mg/kg/injection, schedule: Q01DX009 (ip), vehicle: Klucel (hydroxypropylcellulose) (HPC)
[7] = dose: 400.0 mg/kg/injection, schedule: Q01DX009 (ip), vehicle: Klucel (hydroxypropylcellulose) (HPC)
[8] = dose: 100.0 mg/kg/injection, schedule: Q04DX002 (ip), vehicle: saline with Tween-80
[9] = dose: 200.0 mg/kg/injection, schedule: Q04DX002 (ip), vehicle: saline with Tween-80
[10] = dose: 12.5 mg/kg/injection, schedule: Q01DX009 (ip), vehicle: saline with Tween-80
[11] = dose: 25.0 mg/kg/injection, schedule: Q01DX009 (ip), vehicle: saline with Tween-80
[12] = dose: 100.0 mg/kg/injection, schedule: Q04DX003 (ip), vehicle: saline
[13] = dose: 200.0 mg/kg/injection, schedule: Q04DX003 (ip), vehicle: saline
[14] = dose: 400.0 mg/kg/injection, schedule: Q04DX003 (ip), vehicle: saline
[15] = dose: 400.0 mg/kg/injection, schedule: Q01DX001 (ip), vehicle: saline
[16] = dose: 200.0 mg/kg/injection, schedule: Q04DX003 (ip), vehicle: Klucel (hydroxypropylcellulose) (HPC)
[17] = dose: 400.0 mg/kg/injection, schedule: Q04DX003 (ip), vehicle: Klucel (hydroxypropylcellulose) (HPC)
[18] = dose: 100.0 mg/kg/injection, schedule: Q01DX001 (ip), vehicle: carboxymethylcellulose (CMC)
[19] = dose: 200.0 mg/kg/injection, schedule: Q01DX001 (ip), vehicle: carboxymethylcellulose (CMC)
[20] = dose: 200.0 mg/kg/injection, schedule: Q01DX009 (ip), vehicle: Klucel (hydroxypropylcellulose) (HPC)

Measured: T/C

O=C1/C(=C\c2cccnc2)CCCc2ccccc21
inactive: dose: 100.0 mg/kg/injection, schedule: Q04DX003 (ip), vehicle: carboxymethylcellulose (CMC) 100 % of control | dose: 200.0 mg/kg/injection, schedule: Q04DX003 (ip), vehicle: carboxymethylcellulose (CMC) 98 % of control | dose: 400.0 mg/kg/injection, schedule: Q04DX003 (ip), vehicle: carboxymethylcellulose (CMC) 98 % of control

Nc1ccc2c(c1)OCO2
inactive: dose: 90.0 mg/kg/injection, schedule: Q04DX003 (sc), vehicle: olive oil, sesame oil, peanut oil 106 % of control | dose: 100.0 mg/kg/injection, schedule: Q01DX009 (sc), vehicle: olive oil, sesame oil, peanut oil 107 % of control | dose: 100.0 mg/kg/injection, schedule: Q04DX003 (sc), vehicle: olive oil, sesame oil, peanut oil 101 % of control | dose: 133.0 mg/kg/injection, schedule: Q04DX003 (sc), vehicle: olive oil, sesame oil, peanut oil 119 % of control | dose: 200.0 mg/kg/injection, schedule: Q01DX009 (sc), vehicle: olive oil, sesame oil, peanut oil 112 % of control | dose: 400.0 mg/kg/injection, schedule: Q04DX003 (sc), vehicle: olive oil, sesame oil, peanut oil 108 % of control

CCCCCCCCCCCCNNC(=O)OCCO
inactive: [1] 101 % of control | [2] 93 % of control

CN(C)C(=O)Nc1cccnc1
inactive: dose: 75.0 mg/kg/injection, schedule: Q04DX003 (ip), vehicle: saline 97 % of control | dose: 150.0 mg/kg/injection, schedule: Q04DX003 (ip), vehicle: saline 106 % of control | dose: 300.0 mg/kg/injection, schedule: Q04DX003 (ip), vehicle: saline 101 % of control

CCOC(=O)C1(C(=O)OCC)C(C)CC2Nc3ccccc3C(=O)N21 (centres undefined)
inactive: dose: 25.0 mg/kg/injection, schedule: Q04DX003 (ip), vehicle: Klucel (hydroxypropylcellulose) (HPC) 87 % of control | dose: 50.0 mg/kg/injection, schedule: Q04DX003 (ip), vehicle: Klucel (hydroxypropylcellulose) (HPC) 91 % of control | [3] 91 % of control

CC(=O)OC1CCC2(C)C(=CC=C3C2CCC2(C)C3CC(OC(C)=O)C2C(C)C2CCC(C)CN2C(C)=O)C1 (centres undefined)
inactive: [4] 91 % of control | [5] 91 % of control

Cc1ccc(C)c(NC(=O)Nc2ccc(Nc3ccccc3)cc2)c1
inactive: [6] 88 % of control | [7] 91 % of control

CC[CH2][Sn]([Br])([CH2]CC(=O)OC)[CH2]CC(=O)OC
inactive: [8] 93 % of control | [9] 96 % of control

COc1ccc(C=Nc2ccc3c(c2)OCO3)cc1Br
inactive: [5] 88 % of control | [8] 108 % of control | dose: 200.0 mg/kg/injection, schedule: Q01DX009 (ip), vehicle: saline with Tween-80 101 % of control | [9] 102 % of control | dose: 400.0 mg/kg/injection, schedule: Q01DX009 (ip), vehicle: saline with Tween-80 103 % of control | dose: 400.0 mg/kg/injection, schedule: Q04DX002 (ip), vehicle: saline with Tween-80 97 % of control

CC1=CCC(O)(C(C)C)CC1 (centres undefined)
inactive: dose: 100.0 mg/kg/injection, schedule: Q01DX009 (ip), vehicle: saline 93 % of control | dose: 200.0 mg/kg/injection, schedule: Q01DX009 (ip), vehicle: saline 93 % of control | dose: 400.0 mg/kg/injection, schedule: Q01DX009 (ip), vehicle: saline 95 % of control

O=c1oc(Cl)cc2oc(=O)n(-c3ccccc3)c(=O)c12
inactive: dose: 6.25 mg/kg/injection, schedule: Q01DX009 (ip), vehicle: saline with Tween-80 106 % of control | [10] 98 % of control | [11] 93 % of control and 109 % of control | dose: 25.0 mg/kg/injection, schedule: Q04DX002 (ip), vehicle: saline with Tween-80 98 % of control | dose: 50.0 mg/kg/injection, schedule: Q04DX002 (ip), vehicle: saline with Tween-80 102 % of control | [8] 96 % of control and 98 % of control

N#CC1OB(O)c2ccccc21 (centres undefined)
inactive: [12] 93 % of control | [13] 100 % of control | [14] 93 % of control

O=C(Nc1cccc2ccccc12)Oc1cccc2cccnc12
inactive: dose: 50.0 mg/kg/injection, schedule: Q01DX001 (ip), vehicle: Klucel (hydroxypropylcellulose) (HPC) 96 % of control | dose: 100.0 mg/kg/injection, schedule: Q01DX001 (ip), vehicle: Klucel (hydroxypropylcellulose) (HPC) 105 % of control | dose: 200.0 mg/kg/injection, schedule: Q01DX001 (ip), vehicle: Klucel (hydroxypropylcellulose) (HPC) 105 % of control

O=c1[nH]cc(COCC(F)(F)F)c(=O)[nH]1
inactive: dose: 50.0 mg/kg/injection, schedule: Q01DX005 (ip), vehicle: other 106 % of control | dose: 100.0 mg/kg/injection, schedule: Q01DX005 (ip), vehicle: other 95 % of control | dose: 200.0 mg/kg/injection, schedule: Q01DX005 (ip), vehicle: other 106 % of control

Cc1nc2ccccc2c(Br)c1Br
inactive: [1] 91 % of control | [2] 94 % of control | [15] 96 % of control

CCCCCCCCOc1ccc(N(C)C(N)=S)cc1
inactive: [3] 97 % of control | [16] 101 % of control | [17] 106 % of control

CCOCc1cc([N+](=O)[O-])cc([N+](=O)[O-])c1O
inactive: dose: 5.56 mg/kg/injection, schedule: Q01DX009 (ip), vehicle: saline with Tween-80 90 % of control | dose: 8.33 mg/kg/injection, schedule: Q01DX009 (ip), vehicle: saline with Tween-80 108 % of control | [10] 95 % of control | dose: 18.7 mg/kg/injection, schedule: Q01DX009 (ip), vehicle: saline with Tween-80 104 % of control | [11] 103 % of control | [4] 93 % of control

Cc1nc(N)nc(N)c1-c1ccc([N+](=O)[O-])cc1
inactive: [18] 95 % of control | [19] 95 % of control

CCN(CC)c1cc(C)c2cc(Cc3ccccc3)ccc2n1
inactive: [18] 98 % of control | [19] 96 % of control | dose: 400.0 mg/kg/injection, schedule: Q01DX001 (ip), vehicle: carboxymethylcellulose (CMC) 101 % of control

NC(=S)N/N=C/c1cc(=O)[nH]c(=O)[nH]1
inactive: dose: 50.0 mg/kg/injection, schedule: Q01DX001 (ip), vehicle: saline 93 % of control | [1] 95 % of control | [2] 98 % of control | [15] 95 % of control

CNC(=O)Nc1ccc(OC)cc1
inactive: [6] 96 % of control | [3] 110 % of control | [20] 100 % of control | [16] 107 % of control | [7] 102 % of control | [17] 105 % of control

Nc1ncnc2c1nc1n2C2OC(CO)C(O)C2O1 (centres undefined)
inactive: [1] 111 % of control | [2] 109 % of control | [15] 111 % of control

CC(C)(SC(c1ccccc1)(c1ccccc1)c1ccccc1)C(N)C(=O)O (centres undefined)
inactive: dose: 6.25 mg/kg/injection, schedule: Q01DX009 (ip), vehicle: saline 103 % of control | dose: 12.5 mg/kg/injection, schedule: Q01DX009 (ip), vehicle: saline 102 % of control | dose: 25.0 mg/kg/injection, schedule: Q01DX009 (ip), vehicle: saline 108 % of control

CCCCCN(CCCCC)CCC(=O)c1ccc2cc(Br)c3ccccc3c2c1
inactive: dose: 13.3 mg/kg/injection, schedule: Q01DX Z (ip), vehicle: methylcellulose (MC) 91 % of control | dose: 20.0 mg/kg/injection, schedule: Q01DX Z (ip), vehicle: methylcellulose (MC) 92 % of control | dose: 30.0 mg/kg/injection, schedule: Q01DX Z (ip), vehicle: methylcellulose (MC) 92 % of control

O=c1[nH]cnc2ncccc12
inactive: [1] 106 % of control | [2] 104 % of control

CCCCNC(=NC)c1ccc(NC(=O)c2ccc(C(=O)Nc3ccc(C(=NC)NCCCC)cc3)cc2)cc1
inactive: dose: 4.4 mg/kg/injection, schedule: Q01DX Z (ip), vehicle: saline 112 % of control | dose: 6.6 mg/kg/injection, schedule: Q01DX Z (ip), vehicle: saline 120 % of control

O=c1oc2ccccc2c(Cl)c1Cl
inactive: dose: 10.0 mg/kg/injection, schedule: Q01DX001 (ip), vehicle: saline 109 % of control

O=[N+]([O-])c1cccc(OCCCCOc2ccccc2)c1
inactive: [6] 98 % of control | [12] 100 % of control | [20] 101 % of control | [13] 101 % of control | [7] 102 % of control | [14] 95 % of control
